This test deals with Low molecular weight phosphotyrosine protein phosphatase (Homo sapiens) (UniProt P24666). Briefly: LMPTP phosphatase inhibitors, colorimetric pNPP readout, dose response, orthogonal assay, biochemical, absorbance, pNPP substrate, LMPTP-A isoform, set 2 (AID 743308). The settings on record: recombinant LMPTP-A.

IC50 data for one molecule are collected here from PubChem BioAssay AID743308 (Sanford-Burnham Center for Chemical Genomics, 2014).

Sequence of Low molecular weight phosphotyrosine protein phosphatase (Homo sapiens) (P24666 whole entry, looked up, canonical isoform): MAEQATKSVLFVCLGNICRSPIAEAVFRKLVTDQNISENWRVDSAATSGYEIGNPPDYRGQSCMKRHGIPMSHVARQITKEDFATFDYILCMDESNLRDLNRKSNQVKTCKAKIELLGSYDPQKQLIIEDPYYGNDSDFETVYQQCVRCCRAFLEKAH

As a reminder, the IC50 is the concentration needed to halve the response being measured. `COc1ccc(-c2cc(NCCCN3CCCCC3)c3ccccc3n2)cc1`: the half-inhibitory concentration (IC50) is 3.52 µM.
